Measured values: patent US20250171431A1, “HETEROCYCLIC INHIBITORS OF IGF-1R FOR TREATMENT OF DISEASE” (HORIZON THERAPEUTICS IRELAND DAC, priority 2023, published 2025)

What was measured:
IGF-1R [1] = molecular target: T1, IGF-1R (Homo sapiens (Human), UniProt P08069); experiment: Example B-2: IGF-1R Assay (PathHunter cell lines, EC80 agonist challenge); format: cell-based; settings: read-out: IC50 (Biological Activity against IGF-1R)
Method: PathHunter cell lines were expanded from freezer stocks according to standard procedures. Cells were seeded in a total volume of 20 μL into white walled, 384-well microplates and incubated for the appropriate time prior to testing.
Cells are pre-incubated with compound followed by EC80 agonist challenge as follows: • 1. Intermediate dilution of sample stocks was performed to generate 5× sample in assay buffer. • 2. 5 μL of 5× sample was added to cells and incubated at 37° C. for 60 minutes. Vehicle concentration was 1%. • 3. 5 μL of 6×EC80 agonist in assay buffer was added to the cells and incubated at room temperature for 3 hours.
Assay signal was generated through a single addition of 12.5 or 15 μL (50% v/v) of PathHunter Detection reagent cocktail for agonist and antagonist assays respectively, followed by a one hour incubation at room temperature. Microplates were read following signal generation with a PerkinElmer Envision™ instrument for chemilumine-scent signal detection.
Compound activity was analyzed using CBIS data analysis suite (ChemInnovation, CA). Percentage inhibition was calculated using the following formula: % Inhibition=100%×(1−(mean RLU of test sample−mean RLU of vehicle control)/(mean RLU of EC80 control−mean RLU of vehicle control)). The activity for representative examples of the invention is shown in the following table, wherein A: IC50≤500 nM; B: 500 nM<IC50≤2 μM; C: […]≤10 μM; D: IC50>[…].
Target sequence in this assay (P08069 31-1367, species assumed): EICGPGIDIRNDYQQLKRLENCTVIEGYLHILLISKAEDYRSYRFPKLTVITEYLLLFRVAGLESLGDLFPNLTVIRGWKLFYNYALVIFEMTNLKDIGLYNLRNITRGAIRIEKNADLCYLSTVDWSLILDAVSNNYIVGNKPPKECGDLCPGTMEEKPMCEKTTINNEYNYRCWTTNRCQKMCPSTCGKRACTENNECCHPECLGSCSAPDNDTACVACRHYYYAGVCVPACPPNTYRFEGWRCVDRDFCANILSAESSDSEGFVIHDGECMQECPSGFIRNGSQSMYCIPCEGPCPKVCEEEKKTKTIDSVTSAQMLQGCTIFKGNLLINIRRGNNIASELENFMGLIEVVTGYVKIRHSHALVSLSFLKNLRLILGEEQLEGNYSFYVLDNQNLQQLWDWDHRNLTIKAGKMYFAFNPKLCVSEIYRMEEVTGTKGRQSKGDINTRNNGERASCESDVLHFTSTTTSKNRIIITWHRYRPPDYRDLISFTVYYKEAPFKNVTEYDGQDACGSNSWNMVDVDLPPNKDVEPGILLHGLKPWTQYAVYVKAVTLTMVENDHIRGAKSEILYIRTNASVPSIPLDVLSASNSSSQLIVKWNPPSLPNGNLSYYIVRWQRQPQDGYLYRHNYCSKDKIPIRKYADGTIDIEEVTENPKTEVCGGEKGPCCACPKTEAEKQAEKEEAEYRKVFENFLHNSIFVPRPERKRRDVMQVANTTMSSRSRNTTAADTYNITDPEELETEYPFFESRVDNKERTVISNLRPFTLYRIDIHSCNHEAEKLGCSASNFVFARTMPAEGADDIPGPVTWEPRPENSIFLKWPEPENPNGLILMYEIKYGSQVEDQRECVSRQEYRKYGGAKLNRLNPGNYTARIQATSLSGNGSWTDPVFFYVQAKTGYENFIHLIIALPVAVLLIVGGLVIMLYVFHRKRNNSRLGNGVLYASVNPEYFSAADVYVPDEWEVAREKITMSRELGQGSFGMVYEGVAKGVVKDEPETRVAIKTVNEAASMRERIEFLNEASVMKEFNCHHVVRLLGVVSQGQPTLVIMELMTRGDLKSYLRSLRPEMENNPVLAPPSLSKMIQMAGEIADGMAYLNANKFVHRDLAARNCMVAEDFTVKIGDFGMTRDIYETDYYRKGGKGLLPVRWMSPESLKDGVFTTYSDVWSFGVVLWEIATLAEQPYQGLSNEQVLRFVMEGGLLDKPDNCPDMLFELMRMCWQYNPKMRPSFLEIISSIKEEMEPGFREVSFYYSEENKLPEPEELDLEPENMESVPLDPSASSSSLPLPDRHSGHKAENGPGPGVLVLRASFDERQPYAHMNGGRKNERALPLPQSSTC

IGF-1R [2] = molecular target: T1, IGF-1R; experiment: Example B-1: IGF-1R Assay (PC3 cells, IGF1 stimulation, AlphaLISA); format: cell-based; settings: 200 ng/mL IGF1 stimulation, read-out: Biological Activity against IGF-1R IC50
Summary of the method: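 Readout is AlphaLISA signal from lysed PC3 cells, expressed as % inhibition versus vehicle and EC80 controls and banded by IC50. Before lysis, the cells were starved of serum for 2 h, exposed to 3× serially diluted compound for 2 h, and stimulated for 30 min with 200 ng/mL IGF1 (final).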
Target sequence in this assay (P08069 31-1367): as the sequence (P08069 31-1367, species assumed) above

Row | Compound | IC50 (IGF-1R [1]) [nM] | IC50 (IGF-1R [2]) [nM]
1 | COc1cc(N2CCNC3(CC3)C2)ncc1Nc1nccc(Nc2cc3cccc(F)c3[nH]c2=O)n1 [Compound 221, 3-(2-{6-(4,7-diaza-7-spiro[2.5]octyl)-4-methoxy-3-pyridylamino}-4-pyrimidinylamino)-8-fluoro-1,2-dihydro-2-quinolinone] | 500 to 2000 | ≤ 500
2 | COc1cc(N2CCN(CC(F)F)CC2)ncc1Nc1nccc(Nc2cc3cccc(F)c3[nH]c2=O)n1 [Compound 217, 3-(2-{6-[4-(2,2-difluoroethyl)-1-piperazinyl]-4-methoxy-3-pyridylamino}-4-pyrimidinylamino)-8-fluoro-1,2-dihydro-2-quinolinone] | > 10000 | 500 to 2000
3 | COc1cc(Nc2nccc(Nc3cnc4ccc(Cl)cc4c3)n2)ccc1O[C@H]1C[C@H](N(C)C)C1 [Compound 195, 4-(6-chloro-3-quinolylamino)-2-{3-methoxy-4-[(1r,3r)-3-(dimethylamino)cyclobutoxy]phenylamino}pyrimidine] | ≤ 500 | ≤ 500
4 | COc1cc(Nc2nccc(Nc3cnc4c(c3)OCCO4)n2)ccc1O[C@H]1C[C@@H](N(C)C)C1 [Compound 200, 4-(2,3-dihydro-1,4-dioxa-5-aza-7-naphthylamino)-2-{3-methoxy-4-[(1s,3s)-3-(dimethylamino)cyclobutoxy]phenylamino}pyrimidine] | ≤ 500 | ≤ 500
5 | COc1cc(Nc2nccc(Nc3cc4ccccc4nc3C(N)=O)n2)ccc1O[C@H]1C[C@@H](N(C)C)C1 [Compound 297, 3-(2-{3-methoxy-4-[(1s,3s)-3-(dimethylamino)cyclobutoxy]phenylamino}-4-pyrimidinylamino)-2-quinolinecarboxamide] | 500 to 2000 | 

Continued, values first:

Row | IC50 (IGF-1R [1]) [nM] | IC50 (IGF-1R [2]) [nM] | Compound
6 | ≤ 500 | ≤ 500 | CN(C)CC(=O)N1CCOc2ccc(Nc3nccc(Nc4cnc5cc(F)c(F)cc5c4)n3)cc21 [Compound 149, 1-(6-((4-((6,7-difluoroquinolin-3-yl)amino)pyrimidin-2-yl)amino)-2,3-dihydro-4H-benzo[b][1.4]oxazin-4-yl)-2-(dimethylamino)ethan-1-one]
7 | ≤ 500 | ≤ 500 | CN(C)CC(=O)N1CCc2ncc(Nc3nccc(Nc4cnc5ccccc5c4)n3)cc21 [Compound 137, 2-(dimethylamino)-1-(6-((4-(quinolin-3-ylamino)pyrimidin-2-yl)amino)-2,3-dihydro-1H-pyrrolo[3,2-b]pyridin-1-yl)ethan-1-one]
8 | ≤ 500 | ≤ 500 | c1ccc2ncc(Nc3ccnc(Nc4ccc5c(c4)OCCO5)n3)cc2c1 [Compound 505, 2-(2,3-dihydro-1,4-benzodioxin-6-ylamino)-4-(3-quinolylamino)pyrimidine]
9 | ≤ 500 | ≤ 500 | COc1cc([C@H]2CC[C@@](C)(O)CC2)ccc1Nc1nccc(Nc2cc3cccc(F)c3[nH]c2=O)n1 [Compound 216, 8-fluoro-3-(2-{2-methoxy-4-[(1r,4r)-4-hydroxy-4-methylcyclohexyl]phenylamino}-4-pyrimidinylamino)-1,2-dihydro-2-quinolinone]
10 | 500 to 2000 | ≤ 500 | COc1cc(N2CCNC(C(F)F)C2)ncc1Nc1nccc(Nc2cc3cccc(F)c3[nH]c2=O)n1 (centres unmarked) [Compound 218, 3-(2-{6-[3-(difluoromethyl)-1-piperazinyl]-4-methoxy-3-pyridylamino}-4-pyrimidinylamino)-8-fluoro-1,2-dihydro-2-quinolinone]
11 | ≤ 500 | ≤ 500 | CN(C)C[C@H]1COc2cc(Nc3nccc(Nc4cnc5ccc(Cl)cc5c4)n3)ccc2O1 [Compound 144, (S)—N4-(6-chloroquinolin-3-yl)-N2-(2-((dimethylamino)methyl)-2,3-dihydrobenzo[b][1,4]dioxin-6-yl)pyrimidine-2,4-diamine]
12 | 500 to 2000 | ≤ 500 | COc1cc(Nc2nccc(Nc3cc4cccc(F)c4[nH]c3=O)n2)cnc1N1CCC(C)(O)CC1 [Compound 159, 8-fluoro-3-((2-((6-(4-hydroxy-4-methylpiperidin-1-yl)-5-methoxypyridin-3-yl)amino)pyrimidin-4-yl)amino)quinolin-2(1H)-one]
